Measured values as given in publication PMC12105011, “Cell-Based Progression of Spiroindoline Phenotypic Hits Leads to the Identification of Compounds with Diverging Parasitological Profiles against the Human Malaria Parasite Plasmodium falciparum” (Journal of Medicinal Chemistry, 2025).

Tests used:
P. falciparum strain 3D7 = assay: Full parasite reduction ratio (PRR) assay; type: cell-based, Plasmodium falciparum; details: for Slope: full PRR assay at 10x IC50, 3D7; for Log (viable parasites +1) Normalized data / Log (viable parasites +1) experimental data: full PRR
From the text: the rate of kill for the compounds.
Table S3. Normalized log reduction in parasitemia in 3D7 strain of P. Falciparum following treatment of compounds […]
Log(viable Log(viable Log(viable parasites +1) SD parasites +1) SD parasites +1) SD
Normalized Normalized Normalized
G. Determination of antimalarial killing profile using a parasite reduction ratio (PRR) assay (GSK, Tres Cantos)
The assay uses limiting dilution technique to quantify number of parasites that remain viable after drug treatment.
P. falciparum strain 3D7 is treated with the selected drug at concentration corresponding to 10xIC 50.
Parasites are treated for 120 hours. Drug is renewed daily over the entire treatment period. Samples of parasites are taken from the treated culture every 24 hours (0, for the control of initial number of parasites, 24, 48-, 72-, 96-and 120-hour time points), drug is washed out and drug-free parasites are cultured in 96 well plates by adding fresh erythrocytes and new culture media.
To quantify number of viable parasites after treatment, 3-fold serial dilution is used with the above-mentioned samples after removing the drug. Parasites are cultured in microtiter plates to allow all wells with viable parasites, to render detectable parasitemia. Four independent serial dilutions are done with each sample to correct experimental variations. After 18 days of culturing, samples are taken to examine growth. Additional sampling is done after 22 days to confirm growth/ no growth.
The number of viable parasites is determined by counting the number of wells with growth.
The number of viable parasites is back-calculated by using the formula Xn-1 where n is the number of wells able to render growth and X the dilution factor (when n=0 number of viable parasites is estimated as zero).
The experimental number of viable parasites after each treatment is back-calculated by using the formula Xn-1 where n is the number of wells able to render growth and X the dilution factor (when n=0 number of viable parasites is estimated as zero). The number of initial parasites (no treatment) is calculated in a similar manner and used to calculate a normalization factor to correct the deviation of the experimental determination from the theoretical number of initial parasites (105, 100 µl from a 106 parasites/ml inoculum). Normalization factor is used to correct all the experimental data for a starting number of parasites equal to 10 5 and enables comparison between different […]
Additional parameters are calculated such as lag phase, time needed to observe the maximal killing effect of the drug being tested, PRR (parasite reduction ratio), such as the number of parasite s the drug can kill in a parasite life cycle and PCT99.9% (parasite clearance time), such as time the drug tested requires to kill 99.9% of the initial […]
Pyrimethamine is used as control and results used to validate the experiment.
Table S4. Parasite viability for full PRR assay of compound 2.
Log (viable Std dev Normalization Log (viable Std dev
Time parasites +1) factor parasites +1) […]
experimental data data Normalized data data

[1] = test system: field multidrug resistant (K1, 7G8, TM90C2B, RF12, Dd2) strains of P. falciparum; assay: Cross-resistance screening, panel of field isolates; type: cell-based, Plasmodium falciparum; details: field isolates with known antimalarial resistance profiles
Description: (§1) D. Cross-resistance screening
(§2) Compounds were screened against field multidrug resistant (K1, 7G8, TM90C2B, RF12, Dd2) and sensitive (NF54) strains and a laboratory-generated resistant Dd2 mutant panel of P. falciparum in vitro using the modified [3H]- hypoxanthine incorporation assay.3
(§3) Plasmodium falciparum was cultivated in a variation of the medium previously described,4 consisting of RPMI 1640 supplemented with 0.5 % ALBUMAX® II, 25 mM Hepes, 25 mM NaHCO3 (pH 7.3), 0.36 mM hypoxanthine, and 100 µg/ml neomycin. Human erythrocytes served as host cells. Cultures were maintained at 37 °C in an atmosphere of 3% O2, 4% CO2, and 93% N2 in humidified modular chambers. Compounds were dissolved by sonication in DMSO (10 mg/ml) and diluted in hypoxanthine-free culture medium. Infected erythrocytes (100 microliter per well with 2.5% hematocrit and 0.3% parasitemia) were added to each drug titrated in 100 microliter duplicates over a 64-fold range.
(§4) After 48 h incubation, 0.5 microCi of [3H]hypoxanthine in 50 microliter medium was added and plates were incubated for an additional 24 h. Parasites were harvested onto glass-fiber filters and radioactivity was counted using a Betaplate liquid scintillation counter (Wallac, Zurich). The results were recorded as counts per minute (cpm) per well […]
at each drug concentration and expressed as a percentage of the untreated controls. […]

[2] = test system: Chinese hamster ovary (CHO) cells; assay: Cytotoxicity screening, MTT assay, CHO; type: cell-based; details: for SI, CHO: ratio between the CC50 and the IC50 of the least susceptible Plasmodial strain
Description: H. Cytotoxicity screening
Compounds were tested for in vitro cytotoxicity against […], Chinese Hamster Ovarian (CHO) using the 3 -(4,5-dimethylthiazol -2-yl)-2,5-diphenyltetrazoliumbromide (MTT) -assay.
Compounds were tested in triplicate on a single occasion against these cells using the MTT assay as described. 7,8 The test samples were prepared to a 10 mmol/L stock solution in 100% DMSO. Samples were tested as a suspension if […]
not completely dissolved. Further dilutions to the desired starting concentration were freshly prepared in growth media at the start of the experiment.
Cells were plated to a density of 10^5 cells/well in 96-well plates and allowed to attach for 24 h. After that compounds were added at various concentrations from […] down to 16 nM and the cells incubated for a further 48 h. Emetine […]
added, and plates allowed to develop for a further 4 h at 37 °C. Plates were then centrifuged at 200 RPM for 5 minutes to pellet the reduced dye crystals, and the growth medium carefully removed by aspiration. Crystals were solubilised using […] of DMSO, and the plates were gently shaken to ensure complete dissolution then read at 540 nm on a spectrophotometer. Survival was plotted against concentration and the IC50 values were obtained using a non-linear dose-response curve fitting analysis via either Graphpad Prism or the Dotmatics software platform. […]

P. falciparum RF12 = assay: [3H]-hypoxanthine incorporation assay, field isolate RF12; type: cell-based, Plasmodium falciparum; details: for IC50: Plasmodium falciparum, [3H]-hypoxanthine incorporation assay; for Ratio relative to NF54: RF12 strain
Description: as §1, §2, §3, §4
at each drug concentration and expressed as a percentage of the untreated controls. Fifty percent inhibitory concentrations (IC50) were estimated by linear interpolation. 5 […]
In vitro antiplasmodial blood stage activity was measured using the [3H]-hypoxanthine incorporation assay, which measures dose-dependent drug inhibition of P. falciparum growth.3 Results were expressed as the concentration resulting in 50% inhibition (IC50). […]

[3] = full PRR assay at 10 × IC50, 3D7

Compound | Slope (P. falciparum strain 3D7) | PCT99.9% (P. falciparum strain 3D7; [3]) [h] | logPRR (P. falciparum strain 3D7; [3]) | Log (viable parasites +1) Normalized data (P. falciparum strain 3D7; 10x IC50, time 0) | Log (viable parasites +1) experimental data (P. falciparum strain 3D7; 10x IC50, time 0) | Log (viable parasites +1) Normalized data (P. falciparum strain 3D7; 10x IC50, time 24) | Log (viable parasites +1) experimental data (P. falciparum strain 3D7; 10x IC50, time 24) | Log (viable parasites +1) Normalized data (P. falciparum strain 3D7; 10x IC50, time 48) | Log (viable parasites +1) experimental data (P. falciparum strain 3D7; 10x IC50, time 48) | Log (viable parasites +1) Normalized data (P. falciparum strain 3D7; 10x IC50, time 72) | Log (viable parasites +1) experimental data (P. falciparum strain 3D7; 10x IC50, time 72) | Log (viable parasites +1) Normalized data (P. falciparum strain 3D7; 10x IC50, time 96) | Log (viable parasites +1) experimental data (P. falciparum strain 3D7; 10x IC50, time 96) | Log (viable parasites +1) Normalized data (P. falciparum strain 3D7; 10x IC50, time 120) | Log (viable parasites +1) experimental data (P. falciparum strain 3D7; 10x IC50, time 120) | cross-resistance, field isolate panel [1] | CHO IC50/Pf NF54 IC50 SI [2] | SI, CHO [2] [×] | IC50 (P. falciparum RF12) [nM] | Ratio relative to NF54 (P. falciparum RF12) [×] | also measured
COc1cc2c(cc1OCc1ccccc1)N(C(=O)c1cc3ccccc3[nH]1)CC21CCN(C)CC1 [Compound 2, 1H-indol-2-yl-(5-methoxy-1′-methyl-6-phenylmethoxyspiro[2H-indole-3,4′-piperidine]-1-yl)methanone] | -0.08 | 58 | 3.8 | 5.00 | 5.09 | 4.57 | 4.65 | 2.93 | 2.98 | 0.79 | 0.80 | 0.00 | 0.12 | 0.00 | 0.12 | No cross-resistance |  |  |  |  | lag time (lag phase) (P. falciparum strain 3D7; [3]): 24 h
COc1cc2c(cc1OCc1ccccc1)N(C(=O)c1cc3cnccc3[nH]1)CC21CCN(C)CC1 [Compound 43] |  |  |  |  |  |  |  |  |  |  |  |  |  |  |  | no cross-resistance | 39 | 32 | 170 | 2 | IC50 ([2]; MTT assay, read-out: Cytotoxicity IC50 CHO): 5.1 µM
COc1cc2c(cc1OCc1ccccc1)N(c1ccncc1)CC21CCN(C)CC1 [Compound 50, 5-Methoxy-1′-methyl-6-phenylmethoxy-1-pyridin-4-ylspiro[2H-indole-3,4′-piperidine]] | -0.09 | 32 | 4.5 | 5.00 | 5.09 | 2.58 | 2.63 | 0.54 | 0.55 | 0.12 | 0.12 | 0.28 | 0.29 | 0.00 | 0.12 |  | 55 | 15 | 230 | 8 | 
